Test results from paper PMC10158761, “Screening of an annexin‐A2‐targeted heptapeptide for pancreatic adenocarcinoma localization” (Molecular Oncology, 2022).
Entries after “also recorded” stand apart in the source; their conditions may differ. Primed or numbered codes have the meaning given here. Where no end group is shown, it is not given here. The star is where a group is joined. FITC = O=C1OC2(c3ccc(O)cc3Oc3cc(O)ccc32)c2ccc(NC(=S)*)cc21; PEG3′ = not defined here; Ahx = NCCCCCC(=O)O

Experiments:
[1] = system: ANXA2 (purified recombinant); experiment: ANXA2 affinity column binding with LC/MS detection; conditions: ANXA2 0.7 mg on CNBr‐activated Sepharose; 1 mg YW7; 1 h at 4 °C; UPLC‐G2XS‐QTOF/MS
Description: To prepare the ANXA2‐immobilized affinity column, CNBr‐activated Sepharose (GE Healthcare Bio‐Sciences AB, Uppsala, Sweden) was swelled by 1 mM HCl and coupling buffer. Purified recombinant ANXA2 of 0.7 mg was loaded onto the resin and incubated at 4 °C overnight. After blocking with ethanolamine, the resin was washed with 50 mM Tris–HCl (pH 8.0) and 50 mM Glycine‐0.5 M NaCl (pH 4.0) buffers alternatively for three rounds. Then, the resin was washed with PBS and 1 mg YW7 dissolved in DEPC was added to the ANXA2‐loaded resin. After binding for 1 h at 4 °C, the resin was washed again with 50 mM Tris–HCl (pH 8.0) and 50 mM Glycine‐0.5 M NaCl (pH 4.0) buffers. Eluents were eventually mixed with 50% acetonitrile and analyzed by UPLC‐G2XS‐QTOF/MS (Waters, Milford, MA, USA).

PANC‐1 xenograft tumors = experiment: In vivo NIRF imaging of PANC‐1 xenograft mice; design: species or system mouse (BALB/c nude)
Excerpt: During imaging, mice were anesthetized with 2% isoflurane.

[2] = system: PANC‐1 and HPDE6‐C7 cells; experiment: Fluorescence imaging, PANC‐1 versus HPDE6‐C7 cells; assay type: cell-based, human
Description: (§1) PANC‐1 and HPDE6‐C7 cells were seeded in six‐well plates at a density of 3 × 10^5 cells·mL^−1 and incubated overnight. The cells were incubated with 25 μM FITC‐YW7 for 30 min and 1 h for flow cytometry analysis of bound and internalized peptide, and cells were incubated with 1, 2, 4 μM FITC‐YW7 or Cy7‐YW7 for 1 h for fluorescence imaging of the live cells. Cells were washed with PBS three times and centrifuged for 5 min after 37 °C incubation. Si‐ANXA2‐ or si‐NC‐transfected PANC‐1 cells were detached with nonenzymatic dissociation solution from six‐well plates. 20 μM FITC‐YW7 was added to the suspended cells and incubated at 37 °C for 15 min. Cells were washed with PBS and centrifuged for 5 min repeating three times. The supernatant was then discarded and the cells were resuspended in PBS. Percent of total cells with fluorescent signals was determined by flow cytometry using a FACSCelesta flow cytometer (BD Biosciences, San Jose, CA, USA). Fluorescence intensity was quantified by an imaging system (Berthold LB983, Bad Wildbad, Sttugart, Germany).
(§2) Supplementary file MOL2-17-872-s002.tif: Fig. S3. Fluorescent‐labeled YW7 probes imaging in vitro. […] P values were determined using paired Student's t‐test. *P < 0.05 versus HPDE6‐C7 (Cy7‐YW7); ^# P < 0.05, ^## P < 0.01 versus PBS; ^$ P < 0.05, ^$$ P < 0.01 versus Cy7. […]

PANC‐1 cells = experiment: Fluorescence imaging of PANC‐1 cells with labelled YW7 probes; assay type: cell-based, human; conditions: 1, 2, 4 μM, 1 h; red filter 700–780 nm
Description: as §1, §2

ANXA2 = experiment: siRNA knockdown of ANXA2 in PANC‐1 cells (western blotting, qPCR); assay type: cell-based, human; conditions: 48 h after transfection, lipofectamine 3000; n = 3
Description: ANXA2 expression in human cells and patients' tissues was determined by western blotting. Cells were lysed on ice in RIPA Lysis Buffer (Beyotime, Shanghai, China) with 1% PMSF for 30 min. Fresh tissues were suspended in RIPA Lysis Buffer with 1% PMSF, homogenized for 2 min, and then lysed on ice for another 30 min. The supernatant was collected and the protein concentration was determined after centrifuging for 10 min at 8000 g . The protein concentration was detected by BCA Protein Assay Kit (Beyotime). Proteins extracts were separated by 12% SDS/PAGE gel and then transferred to the PVDF membranes. Next, the membranes were blocked with 5% skimmed milk powder at room temperature for 1 h. Rabbit primary antibodies specific to ANXA2 (1 : 1000; Cell Signaling Technology, Billerica, CA, USA; #8235S) were used to incubate the membranes at 4 °C overnight. Anti‐β‐tubulin mouse primary antibodies (1 : 5000; EarthOx Life Science, Millbrae, CA, USA; E021040‐01) were applied as a loading control. […] The band density was quantified by IMAGEJ software (National Institutes of Health, Bethesda, MD, USA).
Small interfering RNA (primer sequences: forward 5′‐[…]‐3′ and reverse 5′‐[…]‐3′) was used to downregulate the expression of ANXA2 (si‐ANXA2). […] Knockdown efficiency was evaluated by western blotting and quantitative real‐time PCR. […]

[3] = biological target: T1, ANXA2 on pancreatic cells (human (endogenous in PANC-1 and …, UniProt P07355 1-339)); experiment: other fluorescence titration; PANC-1 cells suspended in FITC-YW7 (0-1.5 μM), 37 °C, 30 min; washed with PBS; fluorescence of the cells read in a plate reader (490/518 nm); apparent Kd; conditions: one partner purified
T1 construct: annexin A2, endogenous in the human pancreatic cancer cell line PANC-1 and the normal human pancreatic ductal cell line HPDE6-C7; which cell line was used is told in each assay's format; also called annexin A2; source: endogenous, on PANC-1 cells; endogenous, on HPDE6-C7 cells

[4] = biological target: T2, GST-fused ANXA2 recombinant protein (UniProt P07355 1-339); experiment: MST; FITC-YW7 at constant concentration, unlabeled ANXA2 diluted in a gradient; MST buffer with 0.05% Tween-20; Monolith NT.115, standard capillaries; apparent KD; conditions: both partners purified
T2 construct: product of 62 kD with GST; No cleavage of GST is described; The size of 62 kD would fit whole ANXA2 (36 kD) plus GST; also called GST-ANXA2; annexin A2; source: E. coli BL21 (DE3), purified (GST tag purification resin)
T2 sequence (P07355 whole entry, the tested form may be a part): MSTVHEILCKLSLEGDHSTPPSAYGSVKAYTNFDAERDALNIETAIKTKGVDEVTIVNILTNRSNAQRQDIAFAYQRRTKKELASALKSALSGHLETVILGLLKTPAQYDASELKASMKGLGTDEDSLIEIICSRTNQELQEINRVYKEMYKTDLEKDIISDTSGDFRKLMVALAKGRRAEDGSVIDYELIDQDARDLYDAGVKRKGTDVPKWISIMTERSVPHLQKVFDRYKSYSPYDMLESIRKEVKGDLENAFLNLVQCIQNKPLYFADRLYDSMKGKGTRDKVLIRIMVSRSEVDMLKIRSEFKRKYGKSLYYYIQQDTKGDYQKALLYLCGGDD

T1 sequence (P07355 whole entry): as the sequence (P07355 whole entry, the tested form may be a part) above

In the case of YWRGVYN [YW7], the “binding to ANXA2 column” value [1] is reported as “eluted from ANXA2‐loading column after incubation with ANXA2 recombinant protein for 1 h and identified”.

For “Cy7‐YW7: Cy7 linked to the N terminal of YW7 peptide via spacer of PEG3; NIRF probe ({Cy7-PEG3′}-YWRGVYN)”, the “TBR, as quoted in discussion” value (PANC‐1 xenograft tumors; 8 nmol i.v.) was ~ 2.7, the “earliest time of significant tumor‐to‐background contrast” value (PANC‐1 xenograft tumors; 8 nmol i.v.) was 1 h and the “tumor‐to‐background ratio (TBR)” value (PANC‐1 xenograft tumors; 8 nmol i.v., 2.5 h after injection, n = 4, mean ± SD, P < 0.05 Cy7‐YW7 vs Cy7) was 2.7 ± 0.6. For the same molecule, the “tumor fluorescence / contrast” value (PANC‐1 xenograft tumors; 8 nmol i.v., Cy7‐YW7 versus Cy7, n = 4) was “stronger fluorescence signals in tumor tissues; also recorded: higher than Cy7; also recorded: enhanced tumor sensitivity and specificity from 1 h after injection”, the “time of highest TBR after injection” value (PANC‐1 xenograft tumors; 8 nmol i.v., images at 0, 1, 2, 2.5, 3 h) was 2.5 h and the “TBR compared to Cy7 alone” value (PANC‐1 xenograft tumors; intravenous injection, in abstract) was ~ 2.7 ‐fold. The “fluorescence signal, PANC‐1 versus HPDE6‐C7” value ([2]; 4 μM in PBS) was “stronger fluorescence signal of Cy7‐YW7 was detected after internalization into PANC‐1 cells compared to HPDE6‐C7”, the “uptake in PANC‐1 compared to HPDE6‐C7 cells” value ([2]; summary statement of abstract) was “significantly higher uptake in PANC‐1 cells” and the “internalization by PANC‐1 cells, concentration dependence” value (PANC‐1 cells) was “preferred to be internalized by PANC‐1 cells in a dose‐dependent manner”.

“si‐ANXA2: Small interfering RNA, forward 5′‐AGACCAAAGGUGUGGAUGAUU‐3′ and reverse 5′‐UCAUCCACACCUUUGGUCUUU‐3′ (chemistry not fully specified)” was tested, and the “ANXA2 protein and mRNA level after knockdown” value (ANXA2) was “Downregulated ANXA2 relative protein (D, E) and mRNA (F) levels”.

B1: FITC-labeled YW7 (peptide)
peptide: {FITC-Ahx}-YWRGVYN
notes: heptapeptide YW7 selected from the Ph.D.-7 phage display library; also called FITC-YW7; source: synthetic peptide, Sangon Biotech
With B1 the Kd [3] was 0.0866 µM and the Kd [4] was 12 µM.
